# According to ChEMBL document CHEMBL1201862, “PubChem BioAssay data set” (2004):
# Where “and” joins values, the source holds several entries; their conditions need not be identical. Identical values can stand only once. Calls of active or inactive are those of the source. Rule as the data show it, for most assays here: actives have a measured EC50 and inactives only a lower limit.
# How the values were obtained:
# [1] = biological target: T1, Heat shock factor protein 1 (Mus musculus, UniProt P38532); test: inhibition of MG132-induced HSE-luciferase signal, confirmation, cell-based, NIH3T3, luminescence, dose retest (AID 2382); assay type: functional;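 also: NIH3T3 fibroblasts with HSF1-driven luciferase reporter stressed by proteasome inhibitor MG132; luminescence from HSF1-driven luciferase expression after 8 hours of MG132 stress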
# T1 sequence (P38532 whole entry): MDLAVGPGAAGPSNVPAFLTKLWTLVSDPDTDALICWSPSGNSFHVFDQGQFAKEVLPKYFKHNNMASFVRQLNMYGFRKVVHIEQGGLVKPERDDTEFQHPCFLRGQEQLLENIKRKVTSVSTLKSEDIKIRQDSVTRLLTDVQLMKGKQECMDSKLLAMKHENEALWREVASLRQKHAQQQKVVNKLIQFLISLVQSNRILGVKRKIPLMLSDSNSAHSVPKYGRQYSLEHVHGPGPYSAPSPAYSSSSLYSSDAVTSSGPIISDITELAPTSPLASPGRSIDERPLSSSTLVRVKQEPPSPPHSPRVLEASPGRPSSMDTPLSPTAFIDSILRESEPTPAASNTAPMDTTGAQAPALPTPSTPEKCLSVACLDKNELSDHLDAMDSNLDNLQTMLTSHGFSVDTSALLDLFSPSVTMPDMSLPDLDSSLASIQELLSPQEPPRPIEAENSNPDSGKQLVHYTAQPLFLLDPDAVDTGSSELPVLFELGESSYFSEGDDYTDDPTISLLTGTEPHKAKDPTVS
# Cytochrome P450 3A4 = Cytochrome P450 3A4 (Homo sapiens, UniProt P08684);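 also: CYP3A4 tested as one member of a cytochrome P450 panel screen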
# Cytochrome P450 3A4, sequence (P08684 whole entry): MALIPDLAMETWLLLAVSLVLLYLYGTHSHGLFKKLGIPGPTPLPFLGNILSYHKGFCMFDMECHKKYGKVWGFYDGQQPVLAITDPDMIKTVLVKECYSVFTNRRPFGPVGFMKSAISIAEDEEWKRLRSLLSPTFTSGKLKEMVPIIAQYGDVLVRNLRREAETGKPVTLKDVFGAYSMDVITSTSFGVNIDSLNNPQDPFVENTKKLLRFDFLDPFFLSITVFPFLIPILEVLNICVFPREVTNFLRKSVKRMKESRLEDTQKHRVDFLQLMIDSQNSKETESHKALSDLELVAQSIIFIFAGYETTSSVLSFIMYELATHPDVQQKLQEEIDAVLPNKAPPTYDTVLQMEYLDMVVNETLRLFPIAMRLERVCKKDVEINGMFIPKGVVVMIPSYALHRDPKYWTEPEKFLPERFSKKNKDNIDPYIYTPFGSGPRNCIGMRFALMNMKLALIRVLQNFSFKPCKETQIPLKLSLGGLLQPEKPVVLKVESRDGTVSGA
# Streptokinase A = biological target: T2, Streptokinase A (Streptococcus pyogenes serotype M1, UniProt P10520); test: S. pyogenes streptokinase expression inhibitors, potency, dose response, plasminogen activation absorbance, OD405 (AID 1914); assay type: functional, Streptococcus pyogenes M1 GAS;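 also: secreted streptokinase activity via plasminogen activation per viability signal from cell pellet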
# T2 sequence (P10520 whole entry): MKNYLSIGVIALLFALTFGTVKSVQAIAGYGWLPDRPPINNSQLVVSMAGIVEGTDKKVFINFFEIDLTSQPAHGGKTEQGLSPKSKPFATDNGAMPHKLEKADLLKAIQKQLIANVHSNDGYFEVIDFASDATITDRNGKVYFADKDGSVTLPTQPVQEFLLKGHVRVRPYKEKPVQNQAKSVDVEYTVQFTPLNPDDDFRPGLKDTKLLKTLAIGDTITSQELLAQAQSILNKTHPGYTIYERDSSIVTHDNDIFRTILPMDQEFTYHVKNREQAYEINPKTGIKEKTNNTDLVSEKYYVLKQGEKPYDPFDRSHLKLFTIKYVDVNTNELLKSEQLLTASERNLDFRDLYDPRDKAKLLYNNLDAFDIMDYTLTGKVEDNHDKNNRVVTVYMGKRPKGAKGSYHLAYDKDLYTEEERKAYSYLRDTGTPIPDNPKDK
# [2] = system: Streptococcus sp. 'group A'; test: growth inhibition of control SK(-) GAS strain, dose response, counter-screen for streptokinase expression inhibitor project, luminescence, kanamycin, BacTiterGlo, confirmation (AID 1900); assay type: functional, organism-based
# Streptococcus = test: Group A Streptococcus viability loss, dose response, counter-screen for streptokinase expression inhibitor project, luminescence, BacTiterGlo (AID 1915); assay type: functional, organism-based;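 also: potency for reduction of bacterial viability or growth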
# [3] = cytotoxicity toward NIH3T3 fibroblasts, dose response, counter-screen, cell-based, ATP luminescence, mouse fibroblasts (AID 2010); assay type: functional;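 also: cells exposed to compound for about 90 hours before reading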
# [4] = inhibitors of intracellular T. cruzi replication, confirmation, NIH3T3 host cells, beta-gal luminescence (AID 2044); assay type: functional, cell-based;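 also: intracellular parasites grown in NIH/3T3 mouse fibroblasts as host cells; luminescent beta-galactosidase reporter signal from transgenic T. cruzi replicating inside host cells; inhibitors lower the luminescence signal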
compound,measurement,setting,value
CCC1COCCS(=O)(=O)N1Cc1ccccc1C (stereo not drawn),EC50,[1],> 195 µM (not active)
C[C@H](N)Cc1c[nH]c2ccc(OCc3cccs3)cc12,AC50,Cytochrome P450 3A4,15.8 µM (inconclusive) and 12.6 µM (inconclusive)
CCC(C)n1c(SC(C)C#N)nc2ccccc2c1=O (stereo not drawn),EC50,[1],> 195 µM (not active)
CN1CCN(c2ncc3nc(-c4cc(F)cc(F)c4)c(=O)n(C4CC4)c3n2)CC1,AC50,Cytochrome P450 3A4,39.8 µM (inconclusive)
CCOC(=O)c1[nH]c(C)c(C(=O)N2CCC3(CC2)OCCO3)c1C,AC50,Cytochrome P450 3A4,22.4 µM (inconclusive)
CC(=O)[C@@H]1CC[C@@H]2[C@@H]3CC=C4C[C@H](OS(=O)(=O)O)CC[C@@]4(C)[C@H]3CC[C@]21C,AC50,Cytochrome P450 3A4,12.6 µM (inconclusive)
CCOc1ccc(/C=N/Nc2cc(N3CCOCC3)nc(C)n2)c(O)c1,EC50,Streptokinase A,> 150 µM (not active)
same,EC50,[2],> 150 µM (not active)
same,EC50,Streptococcus,> 150 µM (not active)
Cc1ccc(CN2C(=O)c3ccccc3NC2c2cc(Br)ccc2O)cc1 (stereo not drawn),EC50,Streptokinase A,5 µM (active)
same,EC50,[2],5.08 µM (active)
same,EC50,Streptococcus,8.52 µM (active)
COc1cccc(/C=N/NC(=O)c2nnn(-c3nonc3N)c2C(C)C)c1OCc1ccc(F)cc1,EC50,Streptokinase A,62.6 µM (active)
same,EC50,[2],13 µM (active)
same,EC50,Streptococcus,43.1 µM (active)
Cc1cc(C)c2nc(O)c(CN(Cc3ccccc3)C(S)=NCCCN(C)C)cc2c1,EC50,[3],> 60 µM (not active)
same,EC50,[4],2.19 µM (active)
Cc1ccccc1SCC(=O)Nc1cc(C(F)(F)F)ccc1N1CCOCC1,EC50,[3],> 60 µM (not active)
same,EC50,[4],3.94 µM (active)
Cc1noc(C)c1-c1nccc(N(C)C)n1,AC50,Cytochrome P450 3A4,31.6 µM (inconclusive)
Cc1nn(-c2ccccc2)c(N)c1C(O)(CSc1nccn1C)C(F)(F)F (stereo not drawn),EC50,[1],> 195 µM (not active)
COc1cccc(COC(=O)c2ccc3c(=O)n4c(nc3c2)CCC4)c1OC,EC50,Streptokinase A,> 150 µM (not active)
same,EC50,[2],10.8 µM (active)
same,EC50,Streptococcus,34.1 µM (active)
CCOc1ccc(CN2CCCC(CNC(=O)c3ccc(F)cc3)C2)cc1CO (stereo not drawn),EC50,[3],> 30 µM (not active)
same,EC50,[4],0.771 µM (active)
CCCCN(C)S(=O)(=O)c1ccc(C(=O)N(CCN(C)C)c2nc3ccc(C)cc3s2)cc1,EC50,[3],> 60 µM (inconclusive)
same,EC50,[4],0.182 µM (active)
CO[C@H]1COC(=O)CCC[C@@H](C)[C@H](OC)COC(=O)[C@H]2CCCN2C(=O)C/C=C\[C@@H]1C,AC50,Cytochrome P450 3A4,5.01 µM (inconclusive)
Cc1c2c(n3c(nc4ccccc43)c1C#N)N(CCCN(C)C)CC2,EC50,[3],> 60 µM (not active)
same,EC50,[4],0.242 µM (active)
CCOC(=O)c1c(-c2ccccc2)c2cc(OC)ccc2n1CCCN(C)C,EC50,[3],16.3 µM (active)
same,EC50,[4],0.653 µM (active)
CN(c1ccccc1)c1nc(N2CCCC2)nc(-n2ccnc2)n1,EC50,Streptokinase A,75.6 µM (active)
same,EC50,[2],13.1 µM (active)
same,EC50,Streptococcus,> 50 µM (not active)
O=C(O)c1cc2cc(F)ccc2[nH]1 [5-FLUOROINDOLE-2-CARBOXYLIC ACID],EC50,[1],> 195 µM (not active)
Sc1nc(SCc2ccccc2)nc2ccccc12,EC50,[2],4.43 µM (active)
same,EC50,Streptococcus,64.9 µM (active)
C=CCn1c(C)cc(C(=O)CSc2nnc(NC(C)C)s2)c1C,EC50,[1],> 195 µM (not active)
CCCCCCCc1nn2c(O)cc(=O)nc2s1,EC50,Streptokinase A,> 150 µM (not active)
same,EC50,[2],10.9 µM (active)
same,EC50,Streptococcus,> 150 µM (not active)
COc1ccc(-n2ncc3c(NCCCN4CCOCC4)ncnc32)cc1,EC50,[1],1.52 µM (active)
Cc1ccc(-c2nn(-c3ccccc3)cc2CN(C)C(=O)CCC(=O)O)cc1C,EC50,[1],> 195 µM (not active)
CCCCC(=O)Nc1cccc(NC(=O)c2cccc(Br)c2)c1,EC50,[1],> 195 µM (not active)
CCn1ncc(CN2CCCC(CNC(=O)c3ccc(F)cc3)C2)c1C (stereo not drawn),EC50,[3],> 60 µM (not active)
same,EC50,[4],0.106 µM (active)
Cc1cc(C(C)(C)C)ccc1OCCOCCN1CCCC1,EC50,[3],> 60 µM (inconclusive)
same,EC50,[4],0.913 µM (active)
CNc1ccnc(-c2ccccc2OC)n1,AC50,Cytochrome P450 3A4,31.6 µM (inconclusive)
CC(C)(C)NC(=O)CSc1nc2ccc(Nc3nc(N4CCOCC4)nc(N4CCOCC4)n3)cc2s1,EC50,[3],> 30 µM (not active)
same,EC50,[4],0.832 µM (active)
CN1CCC(OC(=O)c2cccc(F)c2)CC1,EC50,[3],> 30 µM (not active)
same,EC50,[4],0.256 µM (active)
Cc1ccsc1C(=O)OCC(=O)c1cc2ccccc2o1,EC50,Streptokinase A,> 150 µM (not active)
same,EC50,[2],> 150 µM (not active)
same,EC50,Streptococcus,> 150 µM (not active)
COC(=O)C(Cc1cnc(Cl)s1)(C(=O)OC)c1ccc([N+](=O)[O-])cc1[N+](=O)[O-],EC50,[3],> 60 µM (not active)
same,EC50,[4],1.2 µM (active)
Cc1nc2cc([N+](=O)[O-])ccc2c(=O)n1-c1ccccc1[N+](=O)[O-],EC50,[3],19.1 µM (active)
same,EC50,[4],1.91 µM (active)
CC(=O)OC[C@@H]1O[C@H](C/C=N\O[C@@H](C)CN2CCCc3nc(C)c(C)cc32)C=C[C@@H]1OC(C)=O,AC50,Cytochrome P450 3A4,3.98 µM (inconclusive)
Cc1cccc(N2CCN(C(=O)c3ccc4nc(N5CCCCC5)sc4c3)CC2)c1C,EC50,Streptokinase A,14.6 µM (active)
same,EC50,[2],13.8 µM (active)
same,EC50,Streptococcus,140 µM (active)
COC(=O)c1ccc(CSc2cc(C)c3cc(C)cc(C)c3n2)o1,EC50,Streptokinase A,12.6 µM (active)
same,EC50,[2],34.2 µM (active)
same,EC50,Streptococcus,> 150 µM (not active)
O=C(CSc1ccccn1)N/N=C/c1cc([N+](=O)[O-])ccc1O,EC50,[2],1.01 µM (active)
same,EC50,Streptococcus,2.72 µM (active)
O=C(N/N=C/c1cc([N+](=O)[O-])ccc1O)c1ccncc1,EC50,[1],0.66 µM (active)
Cc1ccccc1C(=O)OC1CCN(C)CC1,EC50,[3],42.4 µM (active)
same,EC50,[4],0.115 µM (active)
C=CCn1c(O)c(N=NC(=S)Nc2ccc(OC)c(Cl)c2)c2ccccc21,EC50,[3],3.88 µM (active)
same,EC50,[4],0.586 µM (active)
CCCCCCCCCC(=O)N/N=C(\C)c1cccnc1,EC50,[3],> 60 µM (not active)
same,EC50,[4],1.31 µM (active)
Cc1cccc(CN2CCCC(C(=O)N3CCc4ccccc4C3)C2)c1 (stereo not drawn),EC50,[3],> 60 µM (not active)
same,EC50,[4],0.214 µM (active)
Cc1cccc(NC(c2ccc(C)s2)c2ccc3ccc(C)nc3c2O)n1 (stereo not drawn),EC50,Streptokinase A,2.96 µM (active)
same,EC50,[2],2.83 µM (active)
same,EC50,Streptococcus,9.05 µM (active)
O=C(c1c(F)cccc1F)N1CCN(c2ccccc2F)CC1,EC50,[1],> 195 µM (not active)
COc1ccc(N(C)C(=O)c2oc(=O)c3ccccc3c2-c2ccccc2)c(OC)c1,EC50,[1],> 195 µM (not active)
O=C(c1cc(C(F)(F)F)cc(C(F)(F)F)c1)N1CCC[C@@]2(CCN(c3ccccc3)C2)C1,AC50,Cytochrome P450 3A4,3.16 µM (inconclusive)
Cc1[nH]c2ccccc2c1/C=N/Nc1ccccc1[N+](=O)[O-],EC50,[3],> 60 µM (not active)
same,EC50,[4],2.3 µM (active)
COc1ccc(S(=O)(=O)N2CCC(NC(=O)C(Cc3cccc(OC)c3OC)NC(C)=O)CC2)cc1 (stereo not drawn),EC50,[1],> 195 µM (not active)
O=C1[C@H]2[C@H]3[C@H](O)[C@H](O)C/C(=N/OC[C@@H](O)COCc4ccco4)[C@H]3CC[C@@H]2C(=O)N1c1cccc(Oc2ccccc2)c1,AC50,Cytochrome P450 3A4,3.16 µM (inconclusive)
N#CC1=C(N)SC(N)=C(C#N)C1c1c(Cl)cccc1Cl,EC50,Streptokinase A,93.5 µM (active)
same,EC50,[2],6.67 µM (active)
same,EC50,Streptococcus,> 150 µM (not active)
CC1CCN(CCOCCOc2ccc(Cl)cc2Br)CC1,EC50,[3],13.8 µM (active)
same,EC50,[4],0.54 µM (active)
OCCCCNCc1ccc(OCc2ccc(Cl)cc2)cc1,EC50,[3],10.6 µM (active)
same,EC50,[4],2.39 µM (active)
CCOc1cc(/C=N/NC(=O)CN(CCc2ccccc2)S(=O)(=O)c2ccc(NC(C)=O)cc2)ccc1O,EC50,[1],> 195 µM (not active)
CC(/N=C/C1=C(O)OC(C)(C)OC1=O)C(=O)O (stereo not drawn),EC50,[3],> 60 µM (not active)
O=C(CSc1nnc(NC(=O)c2cccc(Cl)c2)s1)NCC1CCCO1 (stereo not drawn),EC50,Streptokinase A,> 150 µM (not active)
same,EC50,[2],> 150 µM (not active)
same,EC50,Streptococcus,> 150 µM (not active)
COCCOC(=O)CC1=NC(=O)CS1,EC50,[1],> 195 µM (not active)
